Experimental data: patent publication US20040087559A1, “Methods for prevention and treatment of cancer” (priority 1999, published 2004)
“Also recorded” adds a separate entry of the source. Where two headings read alike, the source gives them in different places.

Tests used:
[1] = tested on: renal proximal tubular cells; conditions: primary cultures of renal proximal tubular cells; cited from earlier work
[2] = tested on: HEP 62 hepatoma cell line; conditions: cited from earlier work
human bone cells = human bone cells (extra-renal site); cited from earlier work
[3] = tested on: human prostate cancer cells; conditions: cited from earlier work
[4] = tested on: human T-lymphotrophic virus-transformed lymphocytes; conditions: cited from earlier work
[5] = tested on: normal human keratinocytes transfected with 1α-OHase cDNA; experiment: [3H]thymidine incorporation of human keratinocytes transfected with 1α-OHase cDNA; format: cell-based
Protocol: FIG. 6 depicts a graph showing the effect of 25(OH)D3 concentration on the proliferative activity of normal human keratinocytes transfected with 1α-OHase cDNA. Cultured human keratinocytes transfected with a vector containing the 1α-OHase cDNA as described were incubated with 25(OH)D3 at different concentrations (1 nM, 10 nM, 100 nM) for 18 hours. [^3H]thymidine incorporation was measured as described. ●-: [^3H]thymidine incorporation of cells not transfected (“Control”); ∘-∘: [^3H]thymidine incorporation of cells transfected with vector containing 1α-OHase cDNA (“1α-OHase transfection”).
(F) Keratinocyte transfection. Keratinocytes were maintained in MCDB-153 medium. Cells in 24-well dishes at 50%-60% confluence were transfected with […] of 1α-OHase cDNA which had been subcloned into pCR3.1 vector (INVITROGEN). Empty vector was used as a control. For each transfection, 1.0 μg was diluted in 100 μl of medium containing 6-8 μl Plus Reagent. This mixture was incubated for 15 minutes at room temperature. […] [^3H]thymidine was added to the cultures and [^3H]thymidine incorporation into the DNA (interpreted as a measure of the DNA synthetic activity, i.e. proliferation of the cells) was measured as previously described (Chen, T. C., et al., J Nutr. Biochem. 4:49-57 (1993)). […]

1α-OHase [6] = target: T1, 1α-OHase (Homo sapiens, UniProt O15528); format: cell-based; set-up: two primary cultures of cells, NP96-5 and BPH96-11, derived from noncancerous human prostates; endogenous in cells; host or cells: primary human prostatic epithelial cultures NP96-5 (normal prostate) and BPH96-11 (BPH); conditions: Human keratinocytes; clotrimazole 20 μM; 25(OH)D3 50 nM, 2 h 37° C.
T1 sequence (O15528 1-508): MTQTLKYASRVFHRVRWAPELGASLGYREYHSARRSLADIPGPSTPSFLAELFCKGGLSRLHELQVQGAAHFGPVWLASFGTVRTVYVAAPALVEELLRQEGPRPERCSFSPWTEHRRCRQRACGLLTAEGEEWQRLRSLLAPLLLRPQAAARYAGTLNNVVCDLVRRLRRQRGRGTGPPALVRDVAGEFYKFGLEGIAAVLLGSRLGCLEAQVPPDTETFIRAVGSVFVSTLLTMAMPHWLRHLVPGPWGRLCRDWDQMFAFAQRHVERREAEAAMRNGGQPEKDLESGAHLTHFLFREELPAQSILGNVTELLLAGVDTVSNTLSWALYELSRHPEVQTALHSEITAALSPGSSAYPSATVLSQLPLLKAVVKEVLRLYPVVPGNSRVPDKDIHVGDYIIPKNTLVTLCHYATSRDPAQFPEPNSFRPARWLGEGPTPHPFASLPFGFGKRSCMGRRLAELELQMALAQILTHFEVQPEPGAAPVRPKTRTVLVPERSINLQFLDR

1α-OHase [7] = target: T1, 1α-OHase; conditions: PC-3
Protocol: (§1) (A) Cell Lines. DU 145, PC-3, and LNCaP cell lines were obtained from the American Type Culture Collection, Rockville, Md. All cell lines were tested and found to be free of Mycoplasma contamination.
(§2) (B) Culture Conditions. Prostate cancer cell lines were cultured following several passages in vitro. Cells were routinely cultured in complete medium (RPMI 1640 medium supplemented with fetal bovine serum (10%., HyClone Labs, Logan Utah) and gentamicin (10 μg/ml, Life Technologies, Inc., Gaithersburg, Md.)). Cells were seeded in 35 mm culture dishes (Corning-Costar, Cambridge, Mass.) at 1×10^5 cells/dish in complete medium. Medium was changed to a serum-free medium (RPMI 1640 containing insulin (10 μg/ml), transferrin ( 10 μg/ml) and selenous acid (1 ng/ml)) 24 hours before adding 25(OH)D3.

1α-OHase [8] = target: T1, 1α-OHase; conditions: normal human prostate cells; clotrimazole 20 μM; 25(OH)D3 50 nM, [3H]-25(OH)D3, DPPD 10 μM, 2 h 37° C. (FIG. 3)
Protocol: (§3) In addition, 1α-OHase activity was determined by using a radioactive metabolite, [^3H]-25(OH)D, as substrate.
Second passage of normal human prostate cells incubated with nonradioactive 25(OH)D3 (50 nM), [^3H]-25(OH)D3 (0.91 μCi/nmol) and 1,2-dianilinoethane (DPPD) (10 μM) at 37° C. for two hours in the absence of clotrimazole (20 μM) is shown in FIG. 2.
Second passage of normal human prostate cells were also incubated with nonradioactive 25(OH)D3 (50 nM), [^3H]-25(OH)D3 (0.91 μCi/nmol) and DPPD (10 μM) at 37° C. for two hours in the presence of clotrimazole (20 μM) in the presence of the cytochrome P450 inhibitor (clotrimazole).

1α-OHase [9] = target: T1, 1α-OHase; conditions: DU 145
Protocol: as §1, §2

1α-OHase [10] = target: T1, 1α-OHase; conditions: LNCaP; clotrimazole 20 μM; 25(OH)D3 50 nM, 2 h 37° C.
Protocol: as §1, §2

1α-OHase [11] = target: T1, 1α-OHase; conditions: BPH cultures; clotrimazole 20 μM; 25(OH)D3 50 nM, [3H]-25(OH)D3, DPPD 10 μM, 2 h 37° C. (FIG. 5)
Protocol: as §3
Second passage of prostate cells derived from BPH cultures were incubated with nonradioactive 25(OH)D3 (50 nM), [^3H]-25(OH)D3 (0.91 μCi/nmol) and DPPD (10 μM) at 37° C. for two hours in the absence of clotrimazole (20 μM).

1α-OHase [12] = target: T1, 1α-OHase; conditions: NP96-5; clotrimazole 20 μM; 25(OH)D3 50 nM, 2 h 37° C.
Source text: (§4) Primary cultures of human prostatic epithelial cells were established and characterized as described by Lokeshwar et al., Cancer Res. 53:4493-4498 (1993). Prostatic epithelial cells cultured in a serum-free defined medium (Mammary Epithelial Growth Medium (MEGM), Clontech, San Diego, Calif.) express luminal epithelium specific cytokeratins (cytokeratins 8 and 18) as detected immunohistochemically using an anti-cytokeratin antibody, CAM 5.2 (Becton-Dickinson, Mountain View, Calif.). The serum-free medium contains MCDF170 supplemented with Epidermal Growth Factor, 25 ng/ml, hydrocortisone, 0.5 μg/ml, ethanolamine, 1×10^−4, insulin, 5 μg/ml, transferrin, 5 μg/ml, and whole bovine pituitary extract, 70 μg/ml.
(§5) Prostatic cells used were at their first passage in vitro and were cultured in the serum-free RPMI medium during incubation with vitamin D metabolites. […] Histological examination of adjacent tissue sections taken from specimens used for cultures confirmed their identity as normal or BPH cultures.

1α-OHase [13] = target: T1, 1α-OHase; conditions: BPH96-11; clotrimazole 20 μM; 25(OH)D3 50 nM, 2 h 37° C.
Source text: as §4, §5

[14] = clotrimazole 20 μM, 25(OH)D3 50 nM, 2 h 37° C.

In the case of `C=C1/C(=C\C=C2/CCC[C@]3(C)[C@@H]([C@H](C)CCCC(C)(C)O)CC[C@@H]23)C[C@@H](O)C[C@@H]1O` [1,25(OH)2D, 1,25-dihydroxyvitamin D], the 1α-OHase enzyme activity [1] is given as 5.3-5.6 pmol/hr/mg protein, the “1,25(OH)2D produced” value [2] is given as 2.3 pmol/mg protein/hr and the “1,25(OH)2D produced” value (human bone cells) is given as 0.068 pmol/mg protein/hr. For the same molecule, the “Level of 1,25(OH)2D that can significantly inhibit invasiveness” value ([3]; artificial basement membrane composed of human amnions) was ≥ 10^−11 M, the “effect on invasiveness of DU 145 cells” value ([3]; physiological levels of 1,25(OH)2D, DU 145, correlated with decrease in secreted type IV collagenase (MMP-2 and MMP-9)) was “significantly inhibit the invasiveness” and the “1,25(OH)2D produced” value [4] was 1.6 pmol/mg protein/hr.

For `C=C1CC[C@H](O)C/C1=C/C=C1\CCC[C@]2(C)[C@@H]([C@H](C)CCCC(C)(C)O)CC[C@@H]12` [25(OH)D, 25-hydroxyvitamin D], the “proliferative activity of transfected vs non-transfected control keratinocytes” value ([5]; 25(OH)D 10^−9 to 10^−7M, 18 hours (FIG. 6)) was “more marked decrease in proliferative activity” and the “reduction in the proliferative activity ([3H]thymidine incorporation)” value ([5]; 25(OH)D at 10^−7 M, 18 hours, cells transfected with 1α-OHase gene compared to untransfected keratinocytes, p<0.01) was 53.7%.

With `Clc1ccccc1C(c1ccccc1)(c1ccccc1)n1ccnc1` [clotrimazole] the “1,25(OH)2D Produced, P-450 Inhibitor Present” value (1α-OHase [6]) was “completely inhibited; also recorded: undetectable”, the “inhibition of 1,25(OH)2D production” value (1α-OHase [7]; clotrimazole) was 100% and the “1,25(OH)2D Produced, P-450 Inhibitor Present” value (1α-OHase [7]; [14]) was “completely inhibited; also recorded: undetectable”. The “1,25(OH)2D synthesis in the presence of clotrimazole (HPLC)” value (1α-OHase [8]) was “undetectable”, the “inhibition of 1,25(OH)2D production” value (1α-OHase [9]; clotrimazole) was 100% and the “1,25(OH)2D Produced, P-450 Inhibitor Present” value (1α-OHase [9]; [14]) was “completely inhibited; also recorded: undetectable”. For the same molecule, the “1,25(OH)2D Produced, P-450 Inhibitor Present” value (1α-OHase [10]) was “undetectable”, the “1,25(OH)2D metabolite level in the presence of clotrimazole (tritium activity, HPLC)” value (1α-OHase [11]) was “less than 200 cpm” and the “1,25(OH)2D Produced, P-450 Inhibitor Present” value (1α-OHase [12]) was “completely inhibited; also recorded: undetectable”. The “1,25(OH)2D Produced, P-450 Inhibitor Present” value (1α-OHase [13]) was “completely inhibited; also recorded: undetectable”.
